Experimental data from EP3246013A1, “INHIBITION OF THE ADHESION OF MICROORGANISMS PATHOGENATED BY A STEARATE AND/OR SORBITAN SUCROSE IN THE COSMETIC TREATMENT OF ATOPIC DERMATITIS” (priority 2012, dated 2014).

Tests used:
S. aureus = test: Ex vivo inhibition of adhesion of S. aureus on human corneocytes (D-Squame discs), crystal violet staining and image counting; format: cell-based, Staphylococcus aureus; conditions: for Inhibition de l'adhésion de S. aureus (%) Essai 1 / Inhibition de l'adhésion de S. aureus (%) Essai 2: human corneocytes; for Inhibition de l'adhésion de S. aureus (%) Essai 1: trial 1; for Inhibition de l'adhésion de S. aureus (%) Essai 2: trial 2
Protocol: Afin de corroborer les résultats obtenus in vitro, un test d'adhésion ex vivo sur des cornéocytes humains a été mis au point d'après la méthode réalisée chez le chien (McEwan et al., 2005).
La souche clinique de S. aureus (CIP 65-8) a été prélevée sur un patient, au sein du laboratoire de bactériologie clinique de l'hôpital de la Timone à Marseille.
La souche de S. aureus est inoculée dans 10 ml de milieu 'Nutrient Broth N° 2' (Oxoid) et incubée sous agitation à 37°C pendant 12 heures. Les bactéries sont collectées par centrifugation et le culot bactérien est remis en suspension dans un tampon phosphate PBS. La population bactérienne est ajustée approximativement à 10^6 CFU/ml avec de l'eau osmosée.
Des zones cibles sont délimitées sur chaque bras d'un volontaire humain. Pour chaque zone, les débris cutanés sont éliminés grâce à 5 « pré-strippings » successifs avec des disques Sellotape™Original (diamètre 22 mm). Les cornéocytes sont ensuite collectés sur chaque zone cible à l'aide de disques adhésifs D-Squame™ (diamètre 22 mm) et d'un applicateur de disque D-Squame réglé à la pression de 150 g/cm^2.
Les disques sont ensuite placés dans des boîtes de Pétri, de diamètre 35 mm. Les disques sont alors recouverts par 0,5 ml d'eau ou 0,5 ml de la solution de S. aureus à 10^6 CFU/ml, contenant le composé polyhydroxylé à tester, à raison de trois zones pour chacun d'entre eux.
Les composés polyhydroxylés testés avec ce protocole expérimental sont : • le xylitol, à une concentration finale de 0,5%; • le sucrose stéarate HLB 16 (sucrose monostéarate, SURFHOPE C1816,), à une concentration finale de 1%, • le sucrose laurate monoester (SURFHOPE C1216), à une concentration finale de 0,1 %, • le polysorbate 60, à une concentration finale de 0,1%, • le polysorbate 60, à une concentration finale de 1%, • le polysorbate 20, à une concentration finale de 0,1%,
Toutes les solutions sont préparées dans de l'eau et mises en contact avec S. aureus à température ambiante 45 min avant le début de l'expérience d'adhésion. Les boites sont ensuite incubées à 37°C pendant 60 min. Les disques sont alors rincés avec de l'eau osmosée, ce qui permet d'éliminer les bactéries n'ayant pas adhéré aux cornéocytes. Les bactéries ayant adhéré aux cornéocytes humains sont alors colorées par du cristal violet oxalaté pendant 10 secondes. Les disques sont enfin rincés avec de l'eau osmosée, placés sur une lame de microscope et séchés à l'air libre pendant 24 h.
Les images des bactéries adhérentes sont acquises à l'aide d'un microscope Olympus BX 53 couplé à une caméra numérique. Les images collectées sont ensuite analysées par le logiciel UTHSCSA Image Tool (Reindeer Graphics Inc.). Le nombre de bactéries par disque est calculé par une moyenne arithmétique de 10 à 12 images, ce qui correspond à la surface d'environ 100 cornéocytes. Les comparaisons entre différentes moyennes sont effectuées avec le logiciel Statgraphics Plus (Manugistics Inc.).

Staphylococcus aureus = test: In vitro inhibition of adhesion of S. aureus on a solid support (glass chamber slide), crystal violet staining and automatic counting; format: cell-based; conditions: for Nombre de cellules par champ: adhesion to glass slide, mean of three fields ± SD, water control 99 ± 11; for inhibition de l'adhésion (% par rapport au témoin eau): glass slide
Protocol: Le protocole suivant est mis en oeuvre : • Une préculture de S. aureus issue du laboratoire de bactériologie clinique de l'hôpital de la Timone (CIP 65-8) est réalisée dans du milieu 'Nutrient Broth N° 2' (Oxoid), pendant 12h, à 37°C; • La culture est centrifugée à 9 000 g, pendant 10 min et le culot bactérien est remis en suspension dans un tampon phosphate (PBS); • A partir de cette suspension, une dilution au 1/50 est réalisée dans une solution aqueuse ou une solution aqueuse contenant le composé polyhydroxylé à tester. Il s'agit soit du xylitol, soit du sucrostéarate HLB 16 (SURFHOPE™ C1816); • Les bactéries sont préincubées en présence du composé polyhydroxylé à tester pendant 45 min, à 37 °C; • Le mélange (100 µl) est ensuite déposé dans un puits d'une lame cytologique en verre, de surface fixe (0,8 cm^2) et délimitée par des parois, c'est-à-dire une lame adaptée à la culture cellulaire (Chamber Slide System, Labtek); • Les cultures bactériennes sont ensuite incubées à 37°C, pendant 60 min et ultérieurement rincées délicatement avec de l'eau ultra pure, ce qui permet d'éliminer les bactéries n'ayant pas adhéré à la surface du puits de la lame; • Les bactéries ayant adhéré dans chaque puits sont par la suite colorées par le cristal violet pendant 10 secondes, puis rincées et séchées pendant 12h, à 25°C; • Les bactéries sont enfin observées à l'aide d'un microscope optique, par grossissement x 1000, en immersion, les champs étant parfaitement homogènes; • Un comptage automatique des bactéries dans chaque puits est finalement réalisé à l'aide d'un logiciel approprié.
Selon ce protocole, l'effet des composés polyhydroxylés a été analysé pour l'activité d'inhibition de l'adhésion de S. aureus sur le support solide. Le xylitol à une concentration finale de 0,5% et le sucrostéarate HLB 16 (sucrose monostéarate, SURFHOPE C18-C16) à une concentration finale de 1% ont été testés. Tableau 1 : Effets du xylitol (0,5%) et du sucrostéarate HLB 16 (1%) sur l'adhésion de S. aureus à la surface des lames de verre. Les résultats correspondent à une moyenne du comptage de trois champs, qui est présentée avec l'écart type correspondant.

Row | Compound | effet sur l'adhésion de S. aureus sur les cornéocytes (S. aureus; final concentration 0,1%) | Inhibition de l'adhésion de S. aureus (%) Essai 1 (S. aureus; final concentration 0,1%) | activité inhibitrice (adhésion de S. aureus sur les cornéocytes) (S. aureus; final concentration 1%) [%] | Inhibition de l'adhésion de S. aureus (%) Essai 1 (S. aureus; final concentration 1%) | further results
1 | sucrose laurate monoester [reference compound] | augmentation significative de l'adhésion | -22.8% |  |  | 
2 | monostéarate de sorbitan polyoxyethylène 20 [Polysorbate 60] | résultats très satisfaisants | 39,8% | ≥ 50 | 54% | 
3 | OC[C@@H](O)[C@H](O)[C@@H](O)CO [Xylitol, xylitol, reference compound] |  |  |  |  | effet inhibiteur sur l'adhésion de S. aureus sur les cornéocytes (S. aureus; final concentration 0,5%): ~20%; Inhibition de l'adhésion de S. aureus (%) Essai 1 (S. aureus; final concentration 0,5%): 21,0%; Inhibition de l'adhésion de S. aureus (%) Essai 2 (S. aureus; final concentration 0,5%): 20,2%; Nombre de cellules par champ (Staphylococcus aureus; final concentration 0,5%): 91 ± 6; inhibition de l'adhésion (% par rapport au témoin eau) (Staphylococcus aureus; final concentration 0,5%): 8%
4 | sucrose monostéarate [Sucrostéarate HLB 16] |  |  | ≥ 50 | 57,0% | Inhibition de l'adhésion de S. aureus (%) Essai 2 (S. aureus; final concentration 1%): 49,6%; Nombre de cellules par champ (Staphylococcus aureus; final concentration 1%): 12 ± 1; inhibition de l'adhésion (% par rapport au témoin eau) (Staphylococcus aureus; final concentration 1%): 88%; inhibition de l'adhésion de S. aureus à la surface des lames de verre (Staphylococcus aureus; text conclusion in words, 1%): forte inhibition
5 | monolaurate de sorbitan ethoxylé [Polysorbate 20] | résultats très satisfaisants | 57% |  |  | 
